These results are taken from patent US20240360139A1, “BLOOD BRAIN BARRIER PENETRATING SELECTIVE INHIBITORS OF ROCK2 PROTEIN KINASES AND USES THEREOF” (GENOSCO Inc., priority 2023, published 2024).

Data set [1] concerns the target T1, Recombinant ROCK2 (amino acids 5-554) (Homo sapiens, UniProt O75116).
T1 construct: ROCK2 (amino acids 5-554)
The data set can be described thus: ROCK inhibition assay, LANCE Ultra TR-FRET (ROCK2). Format: biochemical. As to conditions: 1 mM of ATP.

Data set [2] in a line: Blood-brain barrier penetration, brain-to-plasma ratio in mouse. Format: in vivo. Conditions: CD-1 mouse, IV 1 mg/kg, n=3. The procedure:
(§1) The concentrations of compounds of (1) in blood and brain were measured from plasma and brain samples taken 0.25 and 2 hours after intravenous (IV) administration of the compounds of (1) at 1 mg/kg in CD-1 mouse and Sprague-Dawley rat (n=3). After euthanizing the mouse and rat, blood samples from cardiac puncture and brain tissue were collected. Plasma or brain homogenate was vortexed for 1 min. with internal standard in Methanol/Acetonitrile (1:1, v/v), and centrifuged at 4000-4500 rpm for 15 min. at room temperature to precipitate proteins. Subsequently, the supernatant was introduced into the LC/MS/MS system. An AB Sciex API 5500 mass spectrometer system (Sciex, USA) was used for quantitative analysis. The concentrations compounds of (1) in plasma and brain sample were determined using the standard calibration curve and brain-to-plasma concentration ratio was calculated.

A short description of data set [3]: Blood-brain barrier penetration, brain-to-plasma ratio in rat. Format: in vivo. As to conditions: Sprague-Dawley rat, IV 1 mg/kg, n=3. The procedure:
as §1

The target of data set [4] is T2, Recombinant ROCK1 (amino acids 1-477) (Homo sapiens, UniProt Q13464).
T2 construct: Recombinant ROCK1 (amino acids 1-477)
T2 sequence (Q13464 1-477): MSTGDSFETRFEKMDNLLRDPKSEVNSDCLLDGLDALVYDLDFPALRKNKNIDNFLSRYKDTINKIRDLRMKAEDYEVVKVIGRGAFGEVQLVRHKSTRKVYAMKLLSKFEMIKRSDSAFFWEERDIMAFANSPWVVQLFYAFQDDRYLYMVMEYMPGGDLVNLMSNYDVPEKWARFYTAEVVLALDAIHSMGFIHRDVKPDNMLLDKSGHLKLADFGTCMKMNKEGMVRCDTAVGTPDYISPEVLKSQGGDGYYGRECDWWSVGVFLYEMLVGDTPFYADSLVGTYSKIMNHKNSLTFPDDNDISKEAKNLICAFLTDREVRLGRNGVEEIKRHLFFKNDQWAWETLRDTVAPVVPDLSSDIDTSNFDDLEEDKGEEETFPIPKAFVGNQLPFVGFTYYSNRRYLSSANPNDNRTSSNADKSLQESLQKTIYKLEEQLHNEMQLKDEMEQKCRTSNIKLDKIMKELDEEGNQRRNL
Nature of the data set: ROCK inhibition assay, LANCE Ultra TR-FRET (ROCK1). Format: biochemical. As to conditions: 1 mM of ATP. A general note: Time-resolved FRET reads energy transfer from a long-lived donor to a nearby acceptor.

The structures appear in SMILES notation.

T1 sequence (O75116 5-554): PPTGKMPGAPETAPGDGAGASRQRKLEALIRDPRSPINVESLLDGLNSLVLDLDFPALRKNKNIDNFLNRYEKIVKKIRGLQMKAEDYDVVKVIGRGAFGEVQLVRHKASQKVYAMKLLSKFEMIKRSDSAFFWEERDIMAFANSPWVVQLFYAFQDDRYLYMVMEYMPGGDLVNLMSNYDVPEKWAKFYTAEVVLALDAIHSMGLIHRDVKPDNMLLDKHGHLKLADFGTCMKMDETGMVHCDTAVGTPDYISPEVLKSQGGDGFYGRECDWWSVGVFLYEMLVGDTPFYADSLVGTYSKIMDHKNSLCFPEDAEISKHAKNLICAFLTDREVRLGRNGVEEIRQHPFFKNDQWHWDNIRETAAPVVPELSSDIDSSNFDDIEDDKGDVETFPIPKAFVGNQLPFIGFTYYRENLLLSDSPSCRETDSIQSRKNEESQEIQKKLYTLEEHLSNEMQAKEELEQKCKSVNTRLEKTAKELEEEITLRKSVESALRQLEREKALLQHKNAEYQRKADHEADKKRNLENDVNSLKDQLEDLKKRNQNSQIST

The IC50 is the midpoint of a concentration-inhibition curve. In general, Kp refers to the ratio of the level in a tissue or fluid to that in plasma or blood. As to `CN1CC[C@@H]1Cn1cc(C(=O)C2COc3ccc(Cl)cc3C2)c2ccc(-c3cn[nH]c3Cl)cc21` (stereo partly drawn) [Compound 1-55], the IC50 in data set [1] was under 0.02 µM; in data set [4], over 0.501 µM. The Kp at 0.25 h in data set [2] was 0.67; in data set [3], 0.4. The Kp at 2 h was 0.8 in data set [2] and 0.59 in data set [3].

Take `CCN(CC)CCn1cc(C(=O)C2COc3ccc(OC)cc3C2)c2ccc(-c3cn[nH]c3Cl)cc21` (stereo not drawn) [Compound 3-17]: the half-inhibitory concentration (IC50) in data set [1] was 0.021 to 0.2 µM; in data set [4] it was over 0.501 µM. The values for the Kp at 0.25 h in data set [2] and in data set [3] were 0.73 and 1.05, respectively. Besides, the Kp at 2 h in data set [2] amounted to 0.92; in data set [3], 0.98.

As for `CNCCn1cc(C(=O)C2COc3ccc(OC)cc3C2)c2ccc(-c3cn[nH]c3F)cc21` (stereo not drawn) [Compound 3-24], the IC50 in data set [1] is 0.021 to 0.2 µM; in data set [4], over 0.501 µM. For the same molecule, the Kp at 0.25 h came out at 0.96 in data set [2] and 1.37 in data set [3]. Besides, the Kp at 2 h in data set [2] amounted to 0.54; in data set [3] it was 1.38.

As to `CN(C)CCn1nc(C(=O)C2COc3ccc(F)cc3C2)c2ccc(-c3c[nH]nc3Cl)cc21` (stereo not drawn) [Compound 5-52], the values for the IC50 in data set [1] and in data set [4] were under 0.02 µM and 0.201 to 0.5 µM, respectively.

On to `CN(C)CCn1nc(C(=O)[C@@H]2COc3ccc(F)cc3C2)c2ccc(-c3c[nH]nc3Cl)cc21` [Compound 5-53], for which the IC50 in data set [1] was under 0.02 µM; in data set [4], 0.201 to 0.5 µM.

In the case of `CN(C)CCn1nc(C(=O)C2COc3ccccc3C2)c2ccc(-c3c[nH]nc3C(F)(F)F)cc21` (stereo not drawn) [Compound 5-54], the results for the IC50 in data set [1] and in data set [4] were 0.201 to 0.5 µM and over 0.501 µM, respectively.

Consider `CN(C)CCn1nc(C(=O)C2COc3ccc(F)cc3C2)c2ccc(-c3c[nH]nc3F)cc21` (stereo not drawn) [Compound 5-55], for which the half-inhibitory concentration (IC50) in data set [1] is under 0.02 µM; in data set [4], 0.201 to 0.5 µM.

With `CN1CC[C@H]1Cn1nc(C(=O)C2COc3ccc(F)cc3C2)c2ccc(-c3c[nH]nc3F)cc21` (stereo partly drawn) [Compound 5-56], the concentration for half-maximal inhibition (IC50) in data set [1] is 0.021 to 0.2 µM; in data set [4], over 0.501 µM. Further, the Kp at 0.25 h in data set [2] was found to be 7.32; in data set [3], 12.4. For the same molecule, the Kp at 2 h in data set [2] is 10.2; in data set [3], 20.2.

Regarding `CN1CC[C@H]1Cn1nc(C(=O)[C@@H]2COc3ccc(F)cc3C2)c2ccc(-c3c[nH]nc3F)cc21` [Compound 5-57], the IC50 is under 0.02 µM in data set [1] and 0.201 to 0.5 µM in data set [4].

Turning to `COc1n[nH]cc1-c1ccc2c(C(=O)C3COc4ccc(Cl)cc4O3)nn(CCN(C)C)c2c1` (stereo not drawn) [Compound 5-59], the IC50 in data set [1] is 0.021 to 0.2 µM; in data set [4] it was over 0.501 µM.

For `CN(C)CCn1nc(C(=O)C2COc3ccc(Cl)cc3O2)c2ccc(-c3c[nH]nc3F)cc21` (stereo not drawn) [Compound 5-60], the figures for the IC50 in data set [1] and in data set [4] were 0.021 to 0.2 µM and over 0.501 µM, respectively.

Consider `CN(C)CCn1nc(C(=O)C2COc3ccc(Cl)cc3O2)c2ccc(-c3c[nH]nc3Cl)cc21` (stereo not drawn) [Compound 5-61], for which the half-maximal inhibitory concentration (IC50) in data set [1] was 0.021 to 0.2 µM; in data set [4], over 0.501 µM.

In the case of `COc1n[nH]cc1-c1ccc2c(C(=O)C3CCOc4ccc(F)cc4C3)nn(CCN(C)C)c2c1` (stereo not drawn) [Compound 5-62], the IC50 in data set [1] and in data set [4] was over 0.501 µM throughout.

As to `CN(C)CCn1nc(C(=O)C2CCOc3ccc(F)cc3C2)c2ccc(-c3c[nH]nc3Cl)cc21` (stereo not drawn) [Compound 5-63], the IC50 in data set [1] and in data set [4] was over 0.501 µM throughout.

Regarding `COc1ccc2c(c1)CC(C(=O)c1nn(CCN(C)C)c3cc(-c4c[nH]nc4OC)ccc13)CCO2` (stereo not drawn) [Compound 5-64], the IC50 in data set [1] and in data set [4] was over 0.501 µM each time.

Consider `COc1ccc2c(c1)CC(C(=O)c1nn(CCN(C)C)c3cc(-c4c[nH]nc4Cl)ccc13)CCO2` (stereo not drawn) [Compound 5-65], for which the IC50 in data set [1] and in data set [4] was over 0.501 µM in each case.
